We go through one compound from PMC8808171, “Nonselective TRPC channel inhibition and suppression of aminoglycoside-induced premature termination codon readthrough by the small molecule AC1903” (The Journal of Biological Chemistry, 2022).

Assay [1] addresses T1, TRPC4:C4 (Homo sapiens, UniProt Q9UBN4).
T1 construct: expressed in transfected cells; host or cells: HEK T-REx (tetracycline-induced)
T1 sequence (Q9UBN4 1-893 isoform Q9UBN4-2): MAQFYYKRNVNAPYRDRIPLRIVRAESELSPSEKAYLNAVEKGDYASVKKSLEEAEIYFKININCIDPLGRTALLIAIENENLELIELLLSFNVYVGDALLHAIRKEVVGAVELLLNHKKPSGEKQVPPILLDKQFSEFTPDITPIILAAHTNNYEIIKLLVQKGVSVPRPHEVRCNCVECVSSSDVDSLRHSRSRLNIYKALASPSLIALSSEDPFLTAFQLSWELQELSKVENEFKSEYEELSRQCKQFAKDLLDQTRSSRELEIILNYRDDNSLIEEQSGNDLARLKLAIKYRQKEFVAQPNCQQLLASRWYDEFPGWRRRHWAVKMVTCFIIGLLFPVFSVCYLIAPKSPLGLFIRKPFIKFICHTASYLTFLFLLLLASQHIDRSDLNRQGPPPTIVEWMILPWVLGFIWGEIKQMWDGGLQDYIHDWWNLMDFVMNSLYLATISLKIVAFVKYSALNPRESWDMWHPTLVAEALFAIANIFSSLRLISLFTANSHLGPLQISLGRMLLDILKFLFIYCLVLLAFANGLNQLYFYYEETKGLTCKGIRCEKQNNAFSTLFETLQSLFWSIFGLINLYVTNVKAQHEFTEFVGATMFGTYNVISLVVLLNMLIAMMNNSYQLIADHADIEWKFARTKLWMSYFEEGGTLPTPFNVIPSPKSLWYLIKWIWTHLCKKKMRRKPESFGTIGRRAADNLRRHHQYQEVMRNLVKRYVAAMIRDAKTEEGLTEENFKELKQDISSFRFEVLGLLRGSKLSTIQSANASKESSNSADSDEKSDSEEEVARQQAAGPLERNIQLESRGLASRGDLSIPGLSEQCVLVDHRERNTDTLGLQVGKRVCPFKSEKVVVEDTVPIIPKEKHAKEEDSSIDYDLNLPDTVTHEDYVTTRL
The assay can be described thus: [Ca2+]i recordings (Fura-2), TRPC4:C4 in HEK T-REx cells. Format: cell-based. The conditions noted are these: for IC50: HEK T-REx. The protocol: Based on the findings described above, we wondered whether AC1903—which is typically used as a TRPC5 inhibitor at concentrations of 30–100 μM in cellular assays ([29], [56])—might have limited selectivity for TRPC5 channels and whether its effect on intracellular G418 levels and PTC readthrough might be the consequence of inhibition of other or multiple targets. All well-characterized TRPC channel inhibitors reported to date modulate multiple TRP(C) channels ([34], [35], [36]). […] Because limited data for the selectivity of AC1903 are available in the public domain, we decided to profile AC1903 against a selection of calcium-permeable cation channels by intracellular calcium ([Ca^2+]i) recordings using well-characterized cell lines and TRP channel activators ([46], [57], [58]), and the Ca^2+ indicator Fura-2. In these assays, cells (HEK 293, HEK T-REx, or CHO) overexpressing the relevant ion channel protein and loaded with Fura-2 AM (a cell-permeable precursor of Fura-2) were preincubated with various concentrations of AC1903 or vehicle (DMSO) for 30 min. Then, changes in ratiometric fluorescence (from background) were recorded upon addition of the respective ion channel activator.
Figure 4 AC1903 inhibits multiple TRP channels.A and C, representative [Ca^2+]i measurements from a single 96-well plate (N = 6; mean ± SD over technical replicates) showing inhibition of EA-mediated [Ca^2+]i responses by 0.1 to 100 μM AC1903 in (Tet+) HEK T-REx cells expressing TRPC5 (A) or TRPC4 (C). B and D, concentration–response data for experiments in (A) and (C) (scatter plots showing normalized data for three independent experiments; n/N = 3/18). Responses were calculated at 250 to 295 s compared to [Ca^2+]i at baseline (0–55 s). E and G, representative [Ca^2+]i measurements from a single 96-well plate (N = 6; mean ± SD over technical replicates) showing inhibition of OAG-mediated [Ca^2+]i responses by 0.1 to 100 μM AC1903 in (Tet+) HEK T-REx cells expressing TRPC3 (E) and WT HEK 293 cells transiently expressing TRPC6 (G). F and H, concentration–response data for experiments in (E) and (G) (scatter plots showing normalized data for three independent experiments; n/N = 3/18). Responses were calculated at 90 to 110 s compared with [Ca^2+]i at baseline (0–55 s). I, representative [Ca^2+]i measurements from a single 96-well plate (N = 6; mean ± SD over technical replicates) showing inhibition of the 4α-PDD-mediated [Ca^2+]i response by 0.1 to 100 μM AC1903 in CHO cells stably expressing TRPV4. J, concentration–response data for experiments in (I) (scatter plot showing normalized data for three independent experiments; n/N = 3/18). Responses were calculated at 290 to 300 s compared with [Ca^2+]i baseline (0–55 s). EA, (-)-englerin A; TRPC, transient receptor potential canonical. […]

Assay [2] concerns standard kinase panel. The arrangement: method as in PMID 29217578. The conditions noted are these: cited from earlier work.

For `c1ccc(Cn2c(NCc3ccco3)nc3ccccc32)cc1` [AC1903], in assay [1] (activator EA (30 nM)), the IC50 is 2100 nM and the Hill slope is -1.7. In assay [1] (activator S1P (10 μM)), this compound gave an IC50 of 1800 nM and a Hill slope of -1.9. Further, the “off-target effects in a standard kinase panel” value in assay [2] is “no off-target effects were found”.
